What all share (assay type): in vivo
The subject of assay [1] is poinsettia, wild (wild poinsettia, Euphorbia heterophylla). Put plainly: Test F pre-/postemergence: poinsettia, wild. An excerpt: (§1) Seeds of plant species selected from corn (Zea mays), soybean (Glycine max), velvetleaf (Abutilon theophrasti), lambsquarters (Chenopodium album), poinsettia, wild (wild poinsettia, Euphorbia heterophylla), pigweed, palmer (palmer pigweed, Amaranthus palmeri), waterhemp (common waterhemp, Amaranthus rudis), surinam grass (Brachiaria decumbens), crabgrass, Brazil (Brazilian crabgrass, Digitaria horizontalis), panicum, fall (fall panicum Panicum dichotomiflorum), crabgrass, large (large crabgrass, Digitaria sanguinalis), foxtail, giant (giant foxtail, Setaria faberii), foxtail, green (green foxtail Setaria viridis), goosegrass (Eleusine indica), ragweed (common ragweed, Ambrosia elatior), barnyardgrass (Echinochloa crus-galli), sandbur (southern sandbur, Cenchrus echinatus), arrowleaf sida (Sida rhombifolia), ryegrass, Italian (Italian ryegrass, Lolium multiflorum), dayflower, VA (Virginia (VA) dayflower, Commelina virginica), field bindweed (Convolvulus arvensis), cocklebur (common cocklebur, Xanthium strumarium), morningglory (Ipomoea coccinea), nightshade (eastern black nightshade, Solanum ptycanthum), kochia (Kochia scoparia), nutsedge, yellow (yellow nutsedge, Cyperus esculentus), johnsongrass (Sorghum halepense), smartweed (ladysthumb smartweed, Polygonum persicaria), and beggarticks (hairy beggarticks, Bidens pilosa), were planted into a silt loam soil and treated preemergence with test chemicals formulated in a non-phytotoxic solvent mixture which included a surfactant. At the same time, plants selected from these crop and weed species and also pigweed (Amaranthus retroflexus), waterhemp_RES1 (ALS/Triazine resistant common waterhemp, Amaranthus rudis) and waterhemp_RES2 (ALS/HPPD resistant common waterhemp, Amaranthus rudis) were planted in pots containing a planting medium comprising spaghnum peat moss, vermiculite, wetting agent and starter nutrients treated with postemergence applications of some of the test chemicals formulated in the same manner. Plants ranged in height from 2 to 18 cm for postemergence treatments (1- to 4-leaf stage).
(§2) Treated plants and controls were maintained in a greenhouse for 14 to 21 days, after which time all species were compared to controls and visually evaluated. Plant response ratings, summarized in Table E, are based on a scale of 0 to 100 where 0 is no effect and 100 is complete control. A dash (-) response means no test result.

For the next assay, the system named is soybean (Glycine max). The assay can be described thus: Test F pre-/postemergence: soybean.
Excerpt: as §1, §2

The subject of assay [2] is panicum, fall (fall panicum Panicum dichotomiflorum). The assay can be described thus: Test F pre-/postemergence: panicum, fall. The procedure, abridged: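 Preemergence treatment of seeds sown in silt loam soil, and postemergence treatment of plants 2–18 cm tall (1- to 4-leaf stage), with compounds in non-phytotoxic solvent plus surfactant. Greenhouse 14–21 days, then visual rating versus controls on 0–100 scale (100 = complete control).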

[3] abbreviates: Postemergence, 250 g ai/ha, scale 0 to 100.
The mark [4] stands for this setting: Postemergence, 16 g ai/ha, scale 0 to 100.
The mark [5] stands for this setting: Postemergence, 31 g ai/ha, scale 0 to 100.
Where [6] appears, read: Postemergence, 62 g ai/ha, scale 0 to 100.
Where [7] appears, read: Postemergence, 125 g ai/ha, scale 0 to 100.
Setting [8] is: Preemergence, 16 g ai/ha, scale 0 to 100, 0 no effect, 100 complete control.
Where [9] appears, read: Preemergence, 31 g ai/ha, scale 0 to 100, 0 no effect, 100 complete control.
[10] abbreviates: Preemergence, 125 g ai/ha, scale 0 to 100.
[11] abbreviates: Preemergence, 250 g ai/ha, scale 0 to 100.

Take `CCc1nn(-c2ccc(C(F)(F)F)cc2)nc1Oc1ccnc(C(F)(F)F)c1` [Compound 169]: the “Plant response rating, Poinsettia, Wild” value in assay [1] (setting [3]) is 85; in assay [1] (setting [4]), 50; in assay [1] (setting [5]), 60; in assay [1] (setting [6]), 60; in assay [1] (setting [7]), 70; in assay [1] (setting [8]) it was 0. Besides, the entries for the “Plant response rating, Poinsettia, Wild” value in assay [1] (setting [9]), in assay [1] (setting [10]) and in assay [1] (setting [11]) were 0, 40 and 98, respectively. The “Plant response rating, Soybean” value in the assay on soybean (Glycine max) (setting [3]) worked out at 50; with soybean (Glycine max) (setting [4]), 20; with soybean (Glycine max) (setting [5]) it was 20; in the assay on soybean (Glycine max) (setting [6]), 30; with soybean (Glycine max) (setting [7]), 40; in the assay on soybean (Glycine max) (setting [8]), 0. The “Plant response rating, Soybean” value in the assay with soybean (Glycine max) (setting [9]) amounted to 0; in the assay on soybean (Glycine max) (setting [11]) it was 20. Further, the “Plant response rating, Panicum, Fall” value in assay [2] (setting [3]) came out at 30; in assay [2] (setting [4]) it was 10; in assay [2] (setting [5]), 15; in assay [2] (setting [6]) it was 20; in assay [2] (setting [7]), 25; in assay [2] (setting [8]), 65. Moreover, the “Plant response rating, Panicum, Fall” value in assay [2] (setting [9]), in assay [2] (setting [10]) and in assay [2] (setting [11]) was 100 each time.

For `CCc1nn(-c2ccc(F)cc2)nc1Cc1ccnc(C(F)(F)F)c1` [Compound 154], the “Plant response rating, Poinsettia, Wild” value in assay [1] (setting [8]) is recorded as 0; in assay [1] (setting [9]), 0; in assay [1] (setting [10]), 25; in assay [1] (setting [11]) it was 85. The “Plant response rating, Soybean” value in the assay on soybean (Glycine max) (setting [8]) was 0; in the assay on soybean (Glycine max) (setting [9]) it was 0; in the assay with soybean (Glycine max) (setting [10]), 25; in the assay on soybean (Glycine max) (setting [11]), 25. Also, the “Plant response rating, Panicum, Fall” value in assay [2] (setting [8]) was 15; in assay [2] (setting [9]) it was 90; in assay [2] (setting [10]), 100; in assay [2] (setting [11]), 100.

For `Cc1nn(-c2ccc(F)cc2F)nc1Oc1ccnc(C(F)(F)F)c1` [Compound 146], the “Plant response rating, Poinsettia, Wild” value came to 20 in assay [1] (setting [8]), 20 in assay [1] (setting [9]), 40 in assay [1] (setting [10]) and 40 in assay [1] (setting [11]). The “Plant response rating, Soybean” value in the assay with soybean (Glycine max) (setting [8]), with soybean (Glycine max) (setting [9]), in the assay with soybean (Glycine max) (setting [10]) and in the assay on soybean (Glycine max) (setting [11]) was 0 each time. For the same compound, the “Plant response rating, Panicum, Fall” value in assay [2] (setting [8]) was found to be 0; in assay [2] (setting [9]), 5; in assay [2] (setting [10]) it was 100; in assay [2] (setting [11]), 100.

As to `CCCc1nn(-c2ccc(F)c(F)c2)nc1Oc1ccnc(C(F)(F)F)c1` [Compound 172], the “Plant response rating, Poinsettia, Wild” value in assay [1] (setting [3]) came to 100; in assay [1] (setting [5]), 80; in assay [1] (setting [7]), 100; in assay [1] (setting [9]), 20; in assay [1] (setting [10]), 50; in assay [1] (setting [11]) it was 98. The “Plant response rating, Soybean” value in the assay with soybean (Glycine max) (setting [3]) is given as 90; with soybean (Glycine max) (setting [5]), 50; in the assay with soybean (Glycine max) (setting [7]), 75; in the assay on soybean (Glycine max) (setting [9]), 0; in the assay on soybean (Glycine max) (setting [10]), 20; in the assay with soybean (Glycine max) (setting [11]) it was 20. The “Plant response rating, Panicum, Fall” value was 50 in assay [2] (setting [3]); 20 in assay [2] (setting [5]); 50 in assay [2] (setting [7]); 75 in assay [2] (setting [9]); 100 in assay [2] (setting [10]); 100 in assay [2] (setting [11]).

With `CCc1nn(-c2ccc(F)c(F)c2)nc1Oc1ccnc(C(F)(F)F)c1` [Compound 171], the “Plant response rating, Poinsettia, Wild” value in assay [1] (setting [8]) was 0; in assay [1] (setting [9]), 0; in assay [1] (setting [10]), 10; in assay [1] (setting [11]), 10. Also, the “Plant response rating, Soybean” value in the assay with soybean (Glycine max) (setting [8]) was determined as 0; in the assay on soybean (Glycine max) (setting [9]), 0; with soybean (Glycine max) (setting [10]), 0; in the assay on soybean (Glycine max) (setting [11]) it was 20. Besides, the “Plant response rating, Panicum, Fall” value in assay [2] (setting [8]) is 0; in assay [2] (setting [9]) it was 65; in assay [2] (setting [10]) it was 100; in assay [2] (setting [11]) it was 100.
